Earlier results as cited in patent US8686040B2, “Method for treating anal pruritis and other perianal disorders” (RDD Pharma Ltd., priority 2008, dated 2014).

How the values were obtained:
[1] = relative to gabapentin

CC(C)C[C@H](CN)CC(=O)O [Pregabalin]
time to reach peak concentration after oral ingestion: ≤ 90 min
absorption when administered orally (oral): greater than 90%
lipid solubility [1]: higher lipid solubility than gabapentin
